Test results from patent US20090028795A1, “NOD1 as an Anti-Tumor Agent” (priority 2005, published 2009).
Non-standard residues stand in square brackets, D forms with d. No end group written: not given here. DAP = diaminopimelic acid

Legend:
Format in all cases: cell-based, human
CaCo2 = experiment: Apoptosis (PI staining), CaCo2 cells stably expressing Nod1; conditions: CaCo2, Nod1 stably expressed; treatment as labelled
Method: (§1) Cell viability assays. Propidium iodide exclusion assay: Cells were stimulated as indicated for 2 days. Subsequently, cells were harvested, washed twice in FACS buffer (PBS containing 1% FCS and 0.1% NaN3) and resuspended in propidium iodide (PI)-containing FACS buffer (4 ug/ml). The extent of cell death was analyzed with a FACSCalibur flow cytometer (Becton Dickinson, Mountain View, Calif.). DAPI staining: MCF-7 cells were plated in chamber slides, and stimulated for 2 days. Cells were washed with PBS and apoptotic nuclei were stained with 1 μg/ml DAPI (Sigma Chemical Co., St. Louis, Mo.). Cells were fixed in 4% paraformaldehyde and examined by fluorescence microscopy.
(§2) To determine if Nod1-dependent apoptosis occurs in other human cell lines, a series of epithelial cell lines were examined where Nod1 was stably expressed to enhance sensitivity to activation of the Nod1 pathway. Cells were treated with TNFα (T) and γTriDAP (γ) in the presence or absence of CHX (C) and monitored for viability by PI staining as a measure of apoptosis (Table 1).

A431 = experiment: Apoptosis (PI staining), A431 cells stably expressing Nod1; conditions: A431, Nod1 stably expressed; treatment as labelled
Method: as §1, §2

HT29 = experiment: Apoptosis (PI staining), HT29 cells stably expressing Nod1; conditions: HT29, Nod1 stably expressed; treatment as labelled
Method: as §1, §2

293 [1] = experiment: IL-8 production, 293 cells stably expressing Nod1; conditions: 293, Nod1 stably expressed; treatment as labelled
SK-BR3 = experiment: Apoptosis (PI staining), SK-BR3 cells
Method: as §1, §2

[2] = test system: poly(ADP-ribose)polymerase (PARP) and capases 6, 7, 8 and 9; experiment: Western blot of PARP and caspase cleavage in MCF-7 cells; conditions: CHX 0.5 ug/ml, 24 h
Method: Cleavage of PARP and various caspases was detected by Western blot analysis of cell MCF-7 Blasto, MCF-7 C20 and MCF-7 Nod1 after stimulation with γTriDAP, αTriDAP or medium (control) in the presence or absence of CHX (0.5 ug/ml) for 24 h. Cells were harvested, subjected to western blotting and PARP, caspases, p20, p41/43 and p35 were detected with antibodies reactive thereof.
Western blot analysis and immunoprecipitation. Cells were washed extensively and lysed using lysis buffer containing 50 mM Hepes, 100 mM NaCl, 2 mM EDTA, 10% glycerol, 1% Nonidet P-40, 14 μM pepstatin A, 100 uM leupeptin, 3 mM benzamidine, 1 mM PMSF, 1 mM sodium pyrophosphate, 10 mM sodium orthovanadate, 100 U/ml aprotinin, and 100 mM sodium fluoride. After incubation for 30 min on ice, cell lysates were centrifuged (14000 rpm, 10 min, 4° C.) and the supernatants were recovered. For immunoprecipitation, cell lysates were mixed with 5 μg of antibody for 3 hour at 4° C. under constant agitation. Immune complexes were allowed to bind to 20 μl protein A-Sepharose beads overnight, beads were washed three times with lysis buffer. Immunoprecipitates were separated on SDS-PAGE and transferred to PVDF membranes.

JNK = JNK phosphorylation in MCF-7 RIP2 transfectants
Excerpt: FIG. 7A-C illustrate that both wild-type RIP2 and a kinase-deficient (KD) mutant of RIP2 are functional in the NOD1 apoptosis pathway. However, RIP2 lacking the CARD domain acts as a dominant negative inhibitor of NOD1 signaling. FIG. 7A graphically illustrates the percentage of cells that were apoptotic in populations of wild type RIP2, RIP2 KD and RIP2 ΔCARD cells. MCF-7 cells were stably transfected with wild type Myc-RIP2, Myc-RIP2 KD, and Myc-RIP2 ΔCARD and were left untreated or were treated with γTriDAP in the presence or absence of CHX (3 ug/ml) for 48 h. Cells were incubated with PI and apoptotic cell death was measured by flow cytometry. […] FIG. 7C illustrates γTriDAP-induction of phosphorylation of JNK in RIP2 wild types, MCF-7 RIP2 KD, and RIP2 ΔCARD cells.
The effect of RIP2 expression on γTriDAP-induced JNK phosphorylation was also examined (FIG. 7C).

MCF-7 cells = experiment: Apoptosis in the presence of TNFα (FIG. 8C); conditions: with TNFα
Method: FIG. 8A-D illustrate that a synergistic relationship exists between NOD1 and TNFα. FIG. 8A graphically illustrates that the percentage of apoptotic cells increases in dose-specific manner as the concentration of NOD1 increases from 0.0 to 100 μg/ml and the concentration of TNFα increases from 0.5 ng/ml to 1 ng/ml. FIG. 8B graphically illustrates that the percentage of apoptotic cells increases in dose-specific manner as the concentration of cycloheximide increases from 0.0 to 3 μg/ml and the concentration of TNFα increases from 0.5 ng/ml to 1 ng/ml. […] FIG. 8D illustrates NOD1 expression at various time points after exposure of MCF-7 cells to TNFα.

293 [3] = experiment: Apoptosis (PI staining), 293 cells stably expressing Nod1; conditions: 293, Nod1 stably expressed; treatment as labelled
Method: as §1, §2

MCF-7 C20 cells = experiment: Propidium iodide exclusion cell death assay, Nod1-deficient MCF-7 C20 cells; conditions: MCF-7C20 (without Nod1 expression), γTriDAP plus cycloheximide
Method: as §1
To further investigate the role of Nod1 in apoptosis, a variety of cell types were incubated with the Nod1 ligand, […] (γTriDAP), which specifically activates Nod1. The cell types tested included the parental MCF-7 cell line, the Nod1-deficient MCF-7C20 clone, and a cell line engineered to contain an additional human Nod1 allele (MCF-7Nod1) so that Nod1 was over-expressed. […] Cells were treated with γTriDAP in the presence or absence of cycloheximide (CHX) and cell death was then determined by propidium iodide staining and flow cytometry.

D-Ala-L-Glu-Diaminopimelic acid ([dA]-Glu-[DAP]; also: Glu joined to DAP through its gamma carboxyl (γTriDAP))
apoptosis (CaCo2): poorly responsive
apoptosis (A431): only undergo apoptosis when γTriDAP was added together with TNFα and CHX
apoptosis (HT29): poorly responsive
IL−8 Production 293 [1]: do release IL-8
apoptosis (SK-BR3; SK-BR3, Nod1 stably expressed, treatment as labelled): only undergo apoptosis when γTriDAP was added together with TNFα and CHX
apoptosis of SKBR3 cells (SK-BR3; plus TNFα and cycloheximide (FIG. 9B)): highest
proteolytic cleavage of PARP and capases 6, 7, 8 and 9 [2]: resulted in proteolytic cleavage
phosphorylation of JNK (JNK; MCF-7 expressing wild type RIP2 or RIP2 KD, in the presence of cycloheximide, 2 h): induced phosphorylation of JNK
phosphorylation of JNK (JNK; RIP2ΔCARD cells, with cycloheximide): no such effect
apoptosis in the presence of TNFα (MCF-7 cells): increases apoptosis
apoptosis 293 [3]: resistant
apoptosis (MCF-7 C20 cells): totally resistant
